Source: ChEMBL document CHEMBL1155503, “Synthesis of neurotensin(8-13)-phosphopeptide heterodimers via click chemistry” (Bioorg Med Chem Lett, 2010)
Where a SMILES comes first, the peptide text is derived from it.

Target: Neurotensin receptor type 1 (Homo sapiens, UniProt P30989)
Assay: Displacement of [3H]neurotensin from NTR1 in human HT29 cells after 30 mins by liquid scintillation spectrometry
Format: cell-based, HT-29
Details: for Activity: HT-29

Chain of Neurotensin receptor type 1 (P30989 whole entry): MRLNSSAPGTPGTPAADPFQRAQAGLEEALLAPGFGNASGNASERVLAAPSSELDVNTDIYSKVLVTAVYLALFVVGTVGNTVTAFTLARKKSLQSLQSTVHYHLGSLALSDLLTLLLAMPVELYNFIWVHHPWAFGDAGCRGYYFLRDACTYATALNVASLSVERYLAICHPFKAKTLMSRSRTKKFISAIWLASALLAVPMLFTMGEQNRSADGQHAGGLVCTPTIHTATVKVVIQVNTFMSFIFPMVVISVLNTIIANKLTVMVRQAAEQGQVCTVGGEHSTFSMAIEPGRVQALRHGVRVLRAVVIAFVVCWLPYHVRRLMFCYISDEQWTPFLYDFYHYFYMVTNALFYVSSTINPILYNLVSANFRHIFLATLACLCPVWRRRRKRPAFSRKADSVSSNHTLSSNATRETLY

| Structure (SMILES) | IC50 [µM] | Activity |
| --- | --- | --- |
| CC(C)C[C@H](NC(=O)[C@H](CC(C)C)NC(=O)[C@H](Cc1ccc(O)cc1)NC(=O)[C@@H]1CCCN1C(=O)[C@H](CCCNC(=N)N)NC(=O)[C@@H](N)CCCNC(=N)N)C(=O)O (H-RRPYLL-OH) | 0.001 |  |
| CSCC[C@H](NC(=O)CCCCn1cc(CCCC(=O)N[C@@H](CCCNC(=N)N)C(=O)N[C@@H](CCCNC(=N)N)C(=O)N2CCC[C@H]2C(=O)N[C@@H](Cc2ccc(O)cc2)C(=O)N[C@@H](CC(C)C)C(=O)N[C@@H](CC(C)C)C(=O)O)nn1)C(=O)N[C@@H](CCC(N)=O)C(=O)N[C@@H](CO)C(=O)N[C@H](C(=O)N1CCC[C@H]1C(=O)N[C@@H](CC(C)C)C(=O)O)[C@@H](C)OP(=O)(O)O | 8.3 | Dose-dependent effect |
| CSCC[C@H](NC(=O)CCCCn1cc(CCCC(=O)N[C@@H](CCCN=C(N)N)C(=O)N[C@@H](CCCN=C(N)N)C(=O)N2CCC[C@H]2C(=O)N[C@@H](Cc2ccc(O)cc2)C(=O)N[C@@H](CC(C)C)C(=O)N[C@@H](CC(C)C)C(=O)O)nn1)C(=O)N[C@@H](CCC(N)=O)C(=O)N[C@@H](CO)C(=O)N[C@H](C(=O)N1CCC[C@H]1C(=O)N[C@@H](CC(C)C)C(=O)O)[C@@H](C)O | 0.7 |  |
| CSCC[C@H](NC(=O)CCCCn1cc(CCCC(=O)N[C@@H](CCCNC(=N)N)C(=O)N[C@@H](CCCNC(=N)N)C(=O)N2CCC[C@H]2C(=O)N[C@@H](Cc2ccc(O)cc2)C(=O)N[C@@H](CC(C)C)C(=O)N[C@@H](CC(C)C)C(=O)O)nn1)C(=O)N[C@@H](CCC(N)=O)C(=O)N[C@@H](CO)C(=O)N[C@H](C(=O)N1CCC[C@H]1C(=O)N[C@@H](CC(C)C)C(=O)O)[C@@H](C)O |  | Dose-dependent effect |
